“Also recorded” adds a separate entry of the source. Like-named read-outs stand apart in the source and are kept apart here.
Legend:
[1] = molecular target: mannose binding protein (MBP) of Acanthamoeba (Acanthamoeba castellanii, UniProt Q6J288); assay: Solid-phase assay of 35S-labeled Acanthamoeba binding to Man-BSA coated wells; design: species or system Acanthamoeba strain MEEI 0184 (A. castellani); details: for Inhibition of Acanthamoeba binding to Man-BSA: at 100 mM; for Inhibition of amoebic binding to Man-BSA / affinity of amoebic lectin: no concentration stated
From the text: The Acanthamoeba strain MEEI 0184 (A. castellani based on morphological characteristics) was derived from an infected human cornea and used throughout this study. ATCC strain 30868 should have similar properties. The parasites were axenically cultured in PYG medium. A solid-phase assay characterized the sugar binding properties of the mannose binding protein (MBP) of Acanthamoeba (Z. Yang et al., Infect. Immun. 65:439-445, 1997). Briefly, wells of microtiter plates were coated with bovine serum albumin-α-D-mannopyranosyl phenylisothiocyanate (Man-BSA, 15-25 moles of α-D-mannopyranoside/mole albumin, 0.03 μg/ml, 50μl/well in 0.1 M sodium carbonate buffer, pH 9.6, 4° C. overnight). Nonspecific binding was blocked with 1% BSA in phosphate buffered saline (PBS, 1 hour, room temperature). After adding a 50-μl aliquot of ^35 S-labeled Acanthamoeba (5×10^6 cells/ml in PBS; 1 to 2 cpm/parasite, >95% trophozoites) to each well, the plates were incubated for 2 hours at room temperature. After rinsing the cells with PBS to remove unbound Acanthamoeba, 0.1 ml of 2% sodium dodecyl sulfate (SDS) was added to each well, and the radioactivity in aliquots of solubilized material was determined in a scintillation counter.

[2] = system: Acanthamoeba; assay: Acanthamoeba-induced cytopathic effect (CPE) assay, immortalized corneal epithelial cultures; format: cell-based; details: for Inhibition of amoeba-induced CPE: no concentration stated; for inhibition at 50000 µM: at 50 mM; for inhibition at 310 µM: at 0.31 mM
Method: Corneal epithelial cells with extended life span were also produced.
(§1) To characterize the role of carbohydrate-mediated host-parasite interactions in the Acanthamoeba-induced cytotoxicity of host cells, in vitro cytopathic assays were performed using both primary and immortalized cultures of corneal epithelium as host cells. Immortalized cells were assayed as confluent cultures in 24-well plates, and primary cells were assayed as confluent cells in 35-mm dishes or 6-well plates.
(§2) The plates were incubated at 37° C. in a CO2 incubator and periodically examined under a phase-contrast microscope for the presence of cell-free plaques in the monolayer for up to 28-30 hours. Control wells contained host cells without the parasites. At the end of the incubation period, the cultures were stained with Giemsa (Diff-Quik, Dade Diagnostic Inc., Aguada, PR). Approximate cell density in each well was estimated by scanning the stained plates in a calibrated, computer-assisted Bio-Image Scanner (Millipore, Ann Arbor, Mich.). Cytopathic effect (CPE) was expressed as percentage of the optical density by the following formula: [formula]
The CPE assays were performed in the SFB media containing one or more saccharides to be tested.
After staining with Giemsa, percent cell loss in each well was calculated based on the optical density in each well.

[3] = system: Acanthamoeba; assay: Acanthamoeba-induced CPE assay, primary cultures of corneal epithelium; format: cell-based; details: primary cultures as target cells
Method: In vitro cytopathic assays were performed using cell cultures of corneal epithelium as target cells. Primary cell cultures of rabbit corneal epithelium were prepared according to published protocols (M. M. Jumblatt, Invest. Opthalmol. Visual Sci. 24:1139-43, 1983) using rabbit eyes from Pel-Freez Biologicals (N. Panjwani et al., Invest. Opthalmol. Visual Sci. 31:689-695, 1990) (Rogers, AK). Generally, seventy-five eyes were processed at a time. Primary cultures have limited life span and can only be passaged 2 to 3 times without significant alteration in cell morphology.
as §1
as §2, with “The parasites (>95% trophozoites) were rinsed three times in a serum-free Eagle's minimum essential medium supplemented with 0.4% bovine serum albumin (SFB) and aliquots of the parasite suspension (0.2×10^5 to 1×10^6 parasites/ml SFB medium, 300 μl/well for 24-well plates and 500 μl/well for 6-well plates or 35-mm dishes) were added to wells of confluent epithelial cultures which had been rinsed and preincubated in SFB medium for 2 hours. The” for “The”
Primary cultures were less susceptible to amoeba-induced CPE, requiring 1×10^6 parasites/ml to completely destroy the monolayer within 24 hours. This parasite concentration was five times higher than that required to produce the same effect when immortalized cultures were used as target host cells.

[4] = Acanthamoeba, in Oryctolagus cuniculus, read-out: Inhibition of cytopathic effect (% inhib. at indicated conc.)

Chain of mannose binding protein (MBP) of Acanthamoeba (Q6J288 entry or part of it): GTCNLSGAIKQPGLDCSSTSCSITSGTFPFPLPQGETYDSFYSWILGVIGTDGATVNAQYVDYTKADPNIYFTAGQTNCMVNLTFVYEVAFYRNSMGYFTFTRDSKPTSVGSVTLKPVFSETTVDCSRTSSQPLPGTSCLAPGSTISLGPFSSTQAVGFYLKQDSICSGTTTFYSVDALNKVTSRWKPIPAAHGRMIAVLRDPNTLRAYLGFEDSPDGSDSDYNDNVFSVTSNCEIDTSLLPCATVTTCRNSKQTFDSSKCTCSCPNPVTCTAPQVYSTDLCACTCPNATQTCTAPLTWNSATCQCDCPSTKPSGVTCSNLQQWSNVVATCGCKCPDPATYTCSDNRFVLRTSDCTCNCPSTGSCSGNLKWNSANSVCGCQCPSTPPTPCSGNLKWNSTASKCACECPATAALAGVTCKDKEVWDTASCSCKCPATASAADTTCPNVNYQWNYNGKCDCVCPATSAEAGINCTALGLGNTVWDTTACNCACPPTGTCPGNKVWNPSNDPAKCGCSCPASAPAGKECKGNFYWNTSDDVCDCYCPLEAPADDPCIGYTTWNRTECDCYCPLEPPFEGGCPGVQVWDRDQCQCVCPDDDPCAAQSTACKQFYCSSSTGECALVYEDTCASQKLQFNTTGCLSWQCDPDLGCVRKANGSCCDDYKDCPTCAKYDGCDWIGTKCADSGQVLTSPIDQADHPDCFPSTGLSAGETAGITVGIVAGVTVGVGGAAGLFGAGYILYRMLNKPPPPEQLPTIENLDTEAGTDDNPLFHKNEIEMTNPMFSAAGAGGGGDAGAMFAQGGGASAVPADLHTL

| Compound | Inhibition of Acanthamoeba binding to Man-BSA [1] | Inhibition of amoebic binding to Man-BSA / affinity of amoebic lectin [1] | Inhibition of amoeba-induced cytopathic effect ([2]; at 100 mM) | Inhibition of amoeba-induced CPE [2] | also measured |
| --- | --- | --- | --- | --- | --- |
| OC[C@H]1OC(O)[C@@H](O)[C@H](O)[C@@H]1O (stereo partly drawn) [D-altrose] | did not inhibit | not inhibitory | – | – | Inhibition of amoeba-induced cytopathic effect [2]: did not inhibit |
| OC1OC[C@@H](O)[C@H](O)[C@@H]1O (stereo partly drawn) [D-lyxose] | did not inhibit | lack of inhibitory activity; also recorded: no affinity | did not inhibit | – | – |
| OC[C@@H](O)[C@@H](O)[C@H](O)[C@H](O)CO [D-mannitol] | did not inhibit | did not inhibit | did not inhibit | did not inhibit | – |
| O=P(O)(O)OC[C@H]1OC(O)[C@@H](O)[C@@H](O)[C@@H]1O (stereo partly drawn) [D-mannose-6-phosphate] | did not inhibit; also recorded: No inhibition | – | did not inhibit | – | inhibition at 50000 µM [2, 4]: 30% |
| OC[C@H]1OC(O)[C@@H](O)[C@@H](O)[C@@H]1O (stereo partly drawn) [D-mannose] | – | – | – | – | inhibition at 5000 µM [2, 4]: 50% |
| OC[C@@H]1OC(O)[C@H](O)[C@H](O)[C@H]1O (stereo partly drawn) [L-mannose] | did not inhibit | – | – | – | Inhibition of amoeba-induced cytopathic effect [2]: did not inhibit |
| C[C@@H]1OC(O)[C@H](O)[C@H](O)[C@H]1O (stereo partly drawn) [L-rhamnose] | did not inhibit | – | did not inhibit | – | – |
| OCC1OC(OC2C(O)C(CO)OC(OCC3OC(OC4C(O)C(CO)OC(OCC5OC(O)C(O)C(O)C5O)C4O)C(O)C(O)C3O)C2O)C(O)C(O)C1O (stereo not drawn) [Man(α1-3)Man(α1-6)Man-(α1-3)Man(α1-6)Man] | – | potent inhibitors | – | potent inhibitors | Inhibition of amoeba-induced CPE [3]: inhibited CPE |
| OCC1OC(OC2C(O)C(CO)OC(OCC3OC(O)C(O)C(O)C3O)C2O)C(O)C(O)C1O (stereo not drawn) [Man(α1-3)Man(α1-6)Man] | – | potent inhibitors | – | potent inhibitors | inhibition at 310 µM [2, 4]: 100%; Inhibition of amoeba-induced CPE [3]: inhibited CPE |
| OC[C@H]1O[C@H](O[C@H]2[C@H](O)[C@@H](CO)OC(O)[C@H]2O)[C@@H](O)[C@@H](O)[C@@H]1O (stereo partly drawn) [Man(α1-3)Man] | – | – | – | – | Relative inhibitory potency in binding to Man-BSA ([1]; comparator named in the value): three times more potent than the corresponding α-1-6 disaccharide; inhibition at 310 µM [2, 4]: 91% |
| OC[C@H]1O[C@H](OC[C@H]2OC(O)[C@@H](O)[C@@H](O)[C@@H]2O)[C@@H](O)[C@@H](O)[C@@H]1O (stereo partly drawn) [Man(α1-6)Man] | – | – | – | – | inhibition at 310 µM [2, 4]: 80% |
| CO[C@H]1O[C@H](CO)[C@@H](O)[C@H](O)[C@H]1O [Methyl-α-D-glucopyranoside] | – | poor inhibitors | – | poor inhibitors | inhibition at 100000 µM ([1]; read-out: Inhibition of binding, % at indicated conc.): 40%; inhibition at 50000 µM [2, 4]: 31% |
| CC(=O)N[C@H]1C(O)O[C@H](CO)[C@H](O)[C@@H]1O (stereo partly drawn) [N-acetyl-D-galactosamine] | did not inhibit | – | did not inhibit | – | – |
| CC(=O)N[C@@H]1C(O)O[C@H](CO)[C@@H](O)[C@@H]1O (stereo partly drawn) [N-acetyl-D-mannosamine] | did not inhibit | did not inhibit | did not inhibit | did not inhibit | – |
| OC[C@H]1OC(O)[C@H](O)[C@@H](O)[C@@H]1O (some centres unmarked) [glucose] | – | weak inhibitor | – | – | – |
| CO[C@H]1O[C@H](CO)[C@H](O)[C@H](O)[C@H]1O [methyl-α-D-galactopyranoside] | did not inhibit | did not inhibit | did not inhibit | did not inhibit | Inhibition of amoeba-induced CPE [3]: did not inhibit CPE |
| CO[C@@H]1O[C@H](CO)[C@H](O)[C@H](O)[C@H]1O [methyl-β-D-galactopyranoside] | did not inhibit | did not inhibit | did not inhibit | did not inhibit | Inhibition of amoeba-induced CPE [3]: did not inhibit CPE |
| CO[C@@H]1O[C@H](CO)[C@@H](O)[C@H](O)[C@H]1O [methyl-β-D-glucopyranoside] | did not inhibit | – | did not inhibit | – | – |
| OC[C@H]1O[C@H](O)[C@@H](O)[C@@H](O)[C@H]1O [α-D-talose] | did not inhibit | not inhibitory | did not inhibit | – | – |
| C[C@@H]1O[C@@H](O)[C@@H](O)[C@H](O)[C@@H]1O [α-L-Fucose] | – | poor inhibitors; also recorded: weak inhibitor | – | poor inhibitors; also recorded: weak inhibitor | Inhibition of amoebic binding to Man-BSA / affinity of amoebic lectin ([1]; listed as α-fucose): weak inhibitors; inhibition at 100000 µM ([2]; Acanthamoeba, in Oryctolagus cuniculus, at 100 mM, read-out: Inhibition of cytopathic effect (% inhib. at indicated conc.)): 40%; Inhibition of amoeba-induced CPE [3]: not inhibitory |

Source: patent US6037333A, “Microbe-inhibiting compositions” (Trustees of Tufts College, priority 1998, dated 2000)
